The text below walks through data of PubChem BioAssay AID2305 (GlaxoSmithKline (GSK), 2010).

The subject of the assay is P. falciparum 3D7 growth, pLDH absorbance. The assay is described as follows: P. falciparum 3D7 growth inhibition, dose response, strain 3D7 (AID 2305).

In turn, `COc1ccc2nccc([C@@H](O)CN3CCC(NC(=O)C(c4cc5ccccc5o4)N4CCN(c5ccccc5OC)CC4)CC3)c2c1` (some centres undefined) returned an IC50 of 310 nM.

In the case of `O=[N+]([O-])c1ccc2nc(Nc3ccc(Cl)c(Cl)c3)c(Nc3ccc(Cl)c(Cl)c3)nc2c1`, the IC50 worked out at 790 nM.

Molecule `COc1ccc(C(=O)Nc2cc(Br)c3c(c2)CNCC3)cc1C(F)(F)F` had an IC50 of 1070 nM.

As for `CCCC(C)NC(=O)C(N)Cc1cccc(I)c1` (centres undefined), the IC50 worked out at 980 nM.

`CN(C)Cc1ccc2nc(-c3cccc(Cc4cc(Cl)ccc4OCc4ccc(Cl)cc4F)n3)[nH]c2c1` had an IC50 of 1130 nM.

The molecule `Cc1c(CNCCCNc2nc3cscc3[nH]2)sc(C(F)F)c1Br` yielded a half-inhibitory concentration (IC50) of 940 nM.

With `CN(C)CCC(=O)c1ccccc1`, the IC50 was determined as 330 nM.

Take `CN1CCN(c2ccnc3ccc(NC(=O)Cc4ccc(OCc5ccccc5)cc4)cc23)CC1`: the IC50 was determined as 630 nM.

In the case of `CCCCCCNC(=O)C1Cc2c([nH]c3cc(Cl)ccc23)C2(CCN(Cc3ccccc3)CC2)N1` (centres undefined), the IC50 stood at 900 nM.

Turning to `CCCc1ccc(NC(=O)c2ccc(CN3CCCN(CC4CCCCC4)CC3)cc2)cc1`, the IC50 stood at 520 nM.

Turning to `Cc1c(-c2ccc(C(=O)NC3CC(C)(C)NC(C)(C)C3)cc2)[nH]c2cc(Cl)c(Cl)cc12`, the IC50 stood at 750 nM.

The molecule `CCNc1cc(C(=O)N[C@@H](Cc2ccccc2)[C@H](O)CNC(CC)c2cccc(Cl)c2)cc(N2CCCCS2(=O)=O)c1` (some centres undefined) had an IC50 of 50 nM.

In the case of `CC(C)N1CCN(C(CN2CCN(CCCOc3cccc(-c4ccccc4)c3)CC2)c2ccc(F)cc2)CC1` (centres undefined), the IC50 turned out to be 890 nM.

`N#Cc1ccc2c(c1)CCN(CCC1CCC(NC(=O)/C=C/c3cnc4ccccc4c3)CC1)CC2` (centres undefined) gave an IC50 of 1210 nM.

In turn, `c1ccc(Oc2ccc(Nc3ccnc4cc(-c5csc(CN6CCCCC6)n5)ccc34)cc2)nc1` gave an IC50 of 580 nM.

On to `Nc1ccc(-c2nc3cc(C4=N[C@H]5CCCC[C@H]5N4)ccc3o2)cc1[N+](=O)[O-]`, for which the IC50 was 1120 nM.

As for `CN1CCN(c2cc(-c3cccc(C(F)(F)F)c3)nc(-c3ccncc3)n2)CC1`, the IC50 was determined as 730 nM.

`O=C(NCc1ccc(Cl)c(Cl)c1)c1ccc(-c2nc3cc(F)c(F)cc3[nH]2)cc1` showed an IC50 of 1050 nM.

In the case of `Fc1ccc2nc(-c3ccc(-c4ccc(CNCCc5ccncc5)cc4)s3)[nH]c2c1`, the IC50 is 140 nM.

For `O=C(Nc1ccc(Cl)cc1C(=O)Nc1ccncc1)c1ccc(Cl)cc1Cl`, the IC50 came to 610 nM.

The molecule `CC(=O)c1c(C)[nH]c(C(=O)Nc2ccc(-c3nc4ccc(C)cc4s3)cc2)c1C` yielded an IC50 of 840 nM.

Consider `O=c1c2ccccc2[nH]c2nc3ccccc3c(Nc3ccccc3)c12`, for which the concentration for half-maximal inhibition (IC50) was determined as 140 nM.

Take `CC(=O)Nc1nc(C(=O)Nc2cccc(-c3cccc(-c4nc5c(C)cccc5[nH]4)c3)c2)cs1`: the IC50 is 110 nM.

`CCCOc1c(CCNCCCCNCCc2ccc3ccccc3c2OCCC)ccc2ccccc12` had an IC50 of 480 nM.

In the case of `C=CC[C@H](C[C@H](O)[C@H](Cc1ccccc1)NC(=O)c1nn(-c2ccccc2)nc1C)C(=O)NC1CCCCC1`, the IC50 is 920 nM.

Consider `CCc1ccc(NC(=O)c2ccc(CN3CCCN(Cc4cccs4)CC3)cc2)cc1`, for which the IC50 was 830 nM.

The molecule `Cc1[nH]c(C)c(-c2ccc(-c3ccccc3Cl)nc2)c(=O)c1Cl` came in with an IC50 of 220 nM.

On to `COc1ccc2nccc(N3CCC(NCc4ccc5c(n4)NC(=O)CS5)CC3)c2n1`, for which the IC50 was found to be 860 nM.

Turning to `CC(C)NCc1ccc(-c2ccc(NC(=O)c3cccc(Cl)c3)cc2)cc1`, the IC50 was 960 nM.

In turn, `O=C(Nc1ccccc1Cc1ccccc1)c1ccccc1C(F)(F)F` came in with an IC50 of 780 nM.

`CC(C)CNC(=O)CN1C(=O)C(c2ccccc2)(c2ccccc2)N=C1N` showed an IC50 of 820 nM.

For the molecule `CC1CCN(c2nc(C(=O)Nc3cccc4c3CCCC4)c(C(C)C)s2)CC1`, the IC50 came out at 1040 nM.

Turning to `O=C(/C=C/c1ccc(Cl)cc1)NCCCCCN1CCCC(C(=O)Nc2cccc(Cl)c2)C1` (centres undefined), the IC50 turned out to be 210 nM.

The molecule `Nc1nc(N)c2c(ccc3nn(C4CCCC4)cc32)n1` registered an IC50 of 290 nM.

`CN1CCCN(Cc2ccc(-c3cccc(NC(=O)c4cccc(F)c4)c3)cc2)CC1` had an IC50 of 980 nM.

Turning to `Cc1cc(N2CCOCC2)nc2ccc(NC(=O)c3cccc([N+](=O)[O-])c3)cc12`, the IC50 came out at 890 nM.

As to `CC(C)CNCc1cccc(-c2cccc(CN(C(=O)Nc3ccccc3)C3CCN(Cc4ccccc4)CC3)c2)c1`, the IC50 was 370 nM.

`FC(F)(F)Oc1cccc(CNc2noc(-c3sccc3Br)n2)c1` gave an IC50 of 880 nM.

Take `Cc1cc(N)nc2cc(CNCCc3ccccc3Br)ccc12`: the IC50 amounted to 130 nM.

`Cc1[nH]c(C)c(-c2ccc(-c3ccc(C(F)F)cc3)nc2)c(=O)c1Cl` registered an IC50 of 240 nM.

Molecule `O=C(/C=C/c1ccc(Cl)c(Cl)c1)NCCCCCN1CCC(CCNC(=O)C2(c3ccc(Cl)cc3)CC2)CC1` displayed an IC50 of 920 nM.

The molecule `COc1cc(Nc2ccnc3ccc(C(F)(F)F)cc23)cc(OC)c1OC` returned an IC50 of 700 nM.

`CCCN(c1ccc(O)c(CN2CCCCC2)c1)c1ccc([N+](=O)[O-])cn1` had an IC50 of 800 nM.

For the molecule `COc1ccc(NC(=O)[C@H](C)Nc2cc(C)nc(NCC3CCCCC3)n2)cc1`, the IC50 amounted to 1280 nM.

The molecule `CC(C)[C@H](NC(=O)c1ccc(O)c(-c2ccc(Cl)c(Cl)c2)c1)C(=O)NCCN1CCOCC1` returned a half-maximal inhibitory concentration (IC50) of 910 nM.

Molecule `O=C(O)CCCN1CCCC(=C(c2ccccc2)c2ccccc2)C1` came in with an IC50 of 1190 nM.

Take `CCCc1cc(Cc2cnc(N)nc2N)cc(CCC)c1OCCCCCC(=O)OCC`: the IC50 came to 50 nM.

Turning to `CC(=O)C1(c2ccccc2)CCN(CCC2(c3ccc(Cl)c(Cl)c3)CN(C(=O)c3cccc(Cl)c3)CCO2)CC1` (centres undefined), the IC50 worked out at 850 nM.

`O=C(Nc1ccc(N2CCNCC2)cc1)c1ccn2ncc(-c3cccc(Cl)c3)c2n1`: the concentration for half-maximal inhibition (IC50) was determined as 920 nM.

For `COc1ccccc1NC(=O)OC(COc1ccc(N)cc1)CN1CC=C(c2ccccc2)CC1` (centres undefined), the IC50 came out at 1040 nM.

Turning to `C[C@@H]1CN(c2cnn(Cc3cccc(NC(=O)Nc4ccc(-c5ccccc5)cc4)c3)c(=O)c2Cl)C[C@H](C)N1`, the IC50 turned out to be 340 nM.

For the molecule `CC(=O)OCCN1C(=O)c2ccc3c4c(ccc(c24)C1=O)C(=O)N(CCOC(C)=O)C3=O`, the IC50 is 240 nM.

As to `Clc1ccc2c(NCCNc3ccnc4cc(Cl)ccc34)ccnc2c1`, the IC50 turned out to be 400 nM.

Molecule `CCN(CC)C(=O)C1CCCN(C(=O)Nc2cc(C(F)(F)F)cc(C(F)(F)F)c2)C1` (centres undefined) displayed an IC50 of 1000 nM.

In turn, `Brc1cc(Br)c2c(c1)C(NCCCNC1CCNc3c(Br)cc(Br)cc31)CCN2` (centres undefined) yielded a half-inhibitory concentration (IC50) of 820 nM.

Consider `O=C(NC1CCN(Cc2ccccc2)CC1)c1csc2nc(-c3ccc(Cl)cc3)cn12`, for which the IC50 was found to be 910 nM.

Turning to `Cc1nc(C)c(CC(=O)Nc2cccc(-c3cccc(-c4nc5c(C)cccc5[nH]4)c3)c2)s1`, the IC50 stood at 750 nM.

`CC1CCCCN1CCCNc1nc(NCc2ccccc2)c2ccccc2n1` (centres undefined) showed a half-maximal inhibitory concentration (IC50) of 950 nM.

For `COC(=O)c1sc(-c2ccc(Cl)cc2)cc1N(CCCN1CCC(N2CCCCC2)CC1)S(=O)(=O)c1ccc(C)cc1`, the IC50 was 740 nM.

The molecule `Cc1noc(C)c1-c1cccc(CNCc2cccc(-c3cccc(-c4nc5c(C)cccc5[nH]4)c3)c2)c1` showed an IC50 of 370 nM.

In the case of `CC(Oc1ccc(Cl)cc1)C(=O)Nc1cc(C(F)(F)F)ccc1N1CCOCC1` (centres undefined), the IC50 worked out at 530 nM.

The molecule `CCCCn1c(-c2ccco2)nc2c(c(=O)c3ccccc3n2C)c1=O` yielded an IC50 of 1240 nM.

In the case of `CC(C)N1CCC(N(Cc2ccc(-c3ccc(C(F)(F)F)cc3)cc2)C(=O)Cn2c(SCc3cccc(F)c3F)cc(=O)c3ccccc32)CC1`, the IC50 was found to be 820 nM.

`CN(Cc1ccccc1)C1CCN(CCc2c[nH]c3ccc(F)cc23)CC1`: the IC50 came out at 600 nM.

Take `COc1ccc(Nc2ncc3c(-c4cccc(NC(=O)c5ccccc5)c4)c[nH]c3n2)cc1OC`: the IC50 is 460 nM.

In turn, `Cc1nc(-c2ccc(C#N)cc2)sc1C(=O)NCCCCN1CCC(c2ccc3c(c2OCCO)CCCC3)CC1` yielded an IC50 of 850 nM.

Turning to `CN1CCC(NCc2ccc(-c3cccc(S(=O)(=O)NCc4ccccc4)c3)cc2)CC1`, the 50% inhibitory concentration (IC50) amounted to 320 nM.

Consider `Cc1ccc(NC(=O)c2ccc(N3CCN(c4ccncc4)CC3)cc2)cc1F`, for which the IC50 came out at 740 nM.

With `Cc1cccc(CN2CCCN(Cc3cccc(C(=O)Nc4ccc(C(C)(C)C)cc4)c3)CC2)c1`, the concentration for half-maximal inhibition (IC50) was 930 nM.

For the molecule `CN1CCN(c2ccnc3ccc(NC(=O)Nc4c(Cl)cccc4Cl)cc23)CC1`, the IC50 came to 880 nM.

Regarding `O=C(/C=C/c1cccc2c1OCO2)Nc1ccnc2ccncc12`, the IC50 came to 900 nM.

`CCN(CC)c1ccc2nc(N)nc(N)c2c1` yielded an IC50 of 70 nM.

Regarding `CC1(C)CN(CCC2CCC(NC(=O)/C=C/c3ccccc3F)CC2)Cc2ccc(C#N)cc21` (centres undefined), the IC50 is 1110 nM.

The molecule `C=C(C)CSc1nc2c(c(=O)n1Cc1ccco1)C1(CCCCC1)Cc1ccccc1-2` had an IC50 of 1000 nM.

On to `Cc1cc2ccc(CNCCc3ccccc3Br)cc2nc1N`, for which the IC50 was found to be 510 nM.

The molecule `CSc1cccc(Nc2nc3ccc(S(=O)(=O)NC(C)C(C)C)cc3n2[C@H](C)C(C)(C)C)c1` (some centres undefined) gave an IC50 of 450 nM.

`O=C(NCc1ccc(C(=O)NCc2cccc3ccccc23)cc1)c1ccc(O)c(-c2ccc(Cl)c(Cl)c2)c1` returned an IC50 of 810 nM.

As to `COC(=O)c1cccc(CNCc2ccc(-c3ccc(-c4nc5ccc(F)cc5[nH]4)cc3)cc2)c1`, the IC50 worked out at 240 nM.

Take `O=C(Nc1cc(Oc2ccc(O)cc2)cc([N+](=O)[O-])c1)c1cc(-c2ccc(F)cc2)no1`: the IC50 was determined as 960 nM.

In turn, `N#Cc1ccc2nc(-c3cc(-c4cccc(F)c4)cnc3N)[nH]c2c1` showed an IC50 of 190 nM.

`COc1ccc2ncc(F)c(NC(=O)C3CCC(NCc4cc5c(F)cccc5[nH]4)CC3)c2n1` (centres undefined) gave an IC50 of 1090 nM.

On to `Cn1nc2ccc3ccccc3c2nc1=N`, for which the IC50 came to 770 nM.

Molecule `Cc1cccc(-c2nn(-c3ccccc3)cc2C(=O)Nc2nnc(C)o2)c1` registered an IC50 of 1160 nM.

Regarding `O=C(Nc1ccc(-c2cccc(-c3nc4ccc(F)cc4[nH]3)c2)cc1)Nc1ccsc1`, the IC50 stood at 690 nM.

For `COc1ccc2nc3cc(Cl)ccc3c(NCc3ccccc3)c2c1`, the IC50 was 870 nM.

Consider `CN(C)c1ccc2nc(N)nc(N)c2c1Cl`, for which the IC50 was determined as 470 nM.

The molecule `CCCCCCN1CCC(NCc2ccc(OCCN3CCCC3)cc2)CC1` came in with an IC50 of 720 nM.

`CC(C)c1ccc(CN2CCC(CNC(=O)c3cc(-c4cccc(F)c4)cs3)C2)cc1` (centres undefined) registered an IC50 of 1660 nM.

In the case of `Fc1ccc(Nc2n[nH]c(CNC3CCN(Cc4ccc(Cl)c(Cl)c4)CC3)n2)cc1`, the IC50 came out at 1380 nM.

What is called IC50 is the point on the concentration scale where inhibition reaches its midpoint. Read a low IC50 as greater potency in that assay.
